Experimental data: article PMC10237672, “Design and synthesis of novel anti-urease imidazothiazole derivatives with promising antibacterial activity against Helicobacter pylori” (PLOS ONE, 2023)
≈ marks a conversion by molar mass, not a printed value. Entries after “also recorded” stand apart in the source; their conditions may differ. Where two headings read alike, the source gives them in different places.

Tests used:
E. coli [1] = assay: IC50 against E. coli (urease negative), micro broth dilution method; type: cell-based, Escherichia coli; conditions: E. coli ATCC 25922, micro broth dilution
Procedure: (§1) The H. pylori reference strain ATCC 43504 (DSM 21031) was purchased from the German collection of microorganisms and cell cultures, GmbH (DSMZ; Germany). H. pylori was grown on Brucella agar plates (Sigma, USA) supplemented with 10% horse serum (Sigma, USA) for 72 h at 37 °C under 98% humidity and microaerophilic conditions (5% O2, 10% CO2, and 85% N2) using microaerophilic CampyGen 2.5 L pack (Oxoid, thermo scientific, UK) and anaerobic jar (Biomerieux, France). H. pylori culture was inspected after 3 to 5 days. The E. coli reference strain ATCC 25922 was purchased from the American Type Culture Collection (ATCC, Manassas, VA, USA). E. coli was grown on nutrient agar plates (Sigma, USA) for 24 h at 37 °C under aerobic conditions. Bacterial load was adjusted using a DensiCHEK PLUS device (Biomerieux, France). A regular gram stain (Biomerieux, France) was performed to confirm the identity and the morphology of H. pylori and E. coli as well as to confirm the absence of any contamination. Furthermore, a regular spotting checkup was also performed behind the micro broth dilution testing followed by a gram stain to confirm the identity of the bacteria and the absence of any potential contamination.
(§2) For MIC, the agar dilution method was performed as per the CLSI guidelines. 5 μL of the H. pylori suspension (2.0 McFarland) was plated on the Mueller–Hinton agar (Sigma, USA) supplemented with 10% horse serum including various concentrations of compounds 1a-1j and 2a-2j (0.8 mM, 0.4 mM, 0.2 mM, 0.1 mM, 0.05 mM, 0.025 mM, 0.0125 mM, and 0.006 mM). […] For the micro broth dilution test, compounds 1a-1j and 2a-2j were prepared by 2-fold serial dilution from a concentration of 0.8 mM to 0.006 mM and added to an equal H. pylori suspension of 1.0 McFarland in Mueller–Hinton broth (Sigma, USA) for 72 h. Final optical density of the bacterial suspension was measured by spectrophotometry using Synergy H1 microplate reader (BioTek, USA) at 600 nm. The half maximal inhibitory concentration (IC50) was calculated using Graph Pad Prism 8.02 for windows (Graph Pad Inc., La Jolla, CA, USA). All the tested derivatives compounds were dissolved in dimethyl sulfoxide (DMSO, Sigma, USA). […] Amoxicillin (Sigma, USA) (10 μg/mL and 0.007 μg/mL) and (12 μg/mL and 3 μg/mL) was used as a control antibiotic to confirm the agar dilution protocol for H. pylori and E. coli, respectively. Acetohydroxamic acid (AHA, Sigma, CAS number: 546-88-3) was used as a positive anti-urease control. All antimicrobial susceptibility experiments were repeated twice.

H. pylori [2] = assay: IC50 against H. pylori, micro broth dilution test; type: cell-based, Helicobacter pylori; conditions: H. pylori ATCC 43504, micro broth dilution, 72 h, OD 600 nm, read-out: IC50 value against H. pylori ± SEM
Caco-2 A-B permeability = type: in vitro ADME; conditions: human, pH 6.5–7.4, test concentration = MIC against H. pylori (19-50 μM), reference drugs 10 μM
Procedure: (§3) The apparent permeability coefficient (Papp) of the test compound was calculated as follows: Papp(cm/s)=VR*CR,end/Δt*1/A*(CD,mid‐CR,mid) where VR is the volume of the receiver chamber. CR,end is the concentration of the test compound in the receiver chamber at the end time point, Δt is the incubation time and A is the surface area of the cell monolayer. CD,mid is the calculated mid-point concentration of the test compound in the donor side, which is the mean value of the donor concentration at time 0 minute and the donor concentration at the end time point. CR,mid is the mid-point concentration of the test compound in the receiver side, which is one half of the receiver concentration at the end time point. Concentrations of the test compound were expressed as peak areas of the test compound.
(§4) The recovery of the test compound was calculated as follows: Recovery(%)=VD*CD,end+VR*CR,end/VD*CD0*100 where VD and VR are the volumes of the donor and receiver chambers, respectively. CD,end is the concentration of the test compound in the donor sample at the end time point. CR,end is the concentration of the test compound in the receiver sample at the end time point. CD0 is the concentration of the test compound in the donor sample at time zero. Concentrations of the test compound are expressed as peak areas of the test compound.
(§5) Fluorescein was used as the cell monolayer integrity marker. Fluorescein permeability assessment (in the A-B direction at pH 7.4 on both sides) was executed after the permeability assay for the test compound.

E. coli [3] = assay: MIC against E. coli (urease negative), agar dilution method; type: cell-based, Escherichia coli; conditions: for MIC: Escherichia coli, ATCC25922, read-out: MIC ± SEM against E. coli (Urease-)
Procedure: as §1, §2

H. pylori [4] = assay: MIC against H. pylori, agar dilution method; type: cell-based, Helicobacter pylori; conditions: for MIC: Helicobacter pylori, ATCC43504, read-out: MIC value against H. pylori ± SEM; for antibacterial activity against H. pylori (in words): compared within the series and with acetohydroxamic acid
Jack bean urease = target: T1, Jack bean urease (Canavalia ensiformis, UniProt P07374); assay: biochemical; type: biochemical
T1 construct: purchased Sigma Aldrich
Procedure: Reaction mixture comprising 40 μL of buffer (K2HPO4: 10 mmol/L, urea: 100 mmol/L, […]: 10 mmol/L, EDTA: 1 /L mmol, pH = 8.2) and 5 U/mL enzyme (10 μL) were pre-incubated with 10 μL of synthesized compounds (1 mM) and substrate urea (1 mM) were incubated at room temperature in 96 well plate for half an hour. After the incubation at room temperature, absorbance was taken at specific wavelength (630 nm) employing a microplate reader (Bio-Tek, USA) with R1 and R2 reagents in each well. The reactions were measured in triplicate fashion. To calculate the inhibition percentage following equation was used.
Percentage inhibition = 100 –[tested compound/control compound] × 100.

AGS gastric cells = assay: Cytotoxicity MTT assay against AGS gastric cells; type: cell-based, Human; conditions: for IC50: MTT, 48 h treatment, read-out: IC50 value against AGS cells ± SEM; for Selectivity index (SI): toward H. pylori vis-à-vis AGS cells (IC50 values)
Procedure: Human gastric adenocarcinoma AGS cells (ATCC CRL-1739) were purchased from the German Cell Lines Service (CLS, Germany) and cultured in RPMI-1640 medium (Sigma, USA) supplemented with 10% fetal bovine serum (FBS, Sigma, USA) and streptomycin-penicillin (100 μg/mL and 100 IU/mL) (Sigma, USA). Cells were incubated at 37 °C in a humidified atmosphere with 5% CO2 until 80–90% confluency.
The (4, 5-dimethythiazol-2-yl) -2, 5-diphenyltetrazolium bromide (MTT, Sigma, USA) assay was used to assess the cytotoxicity of the five most significant compounds. AGS cells (5×10^3/well) were seeded in 96-well plates for 24 h and treated with various concentrations (0.8 mM, 0.4 mM, 0.2 mM, 0.1 mM, 0.05 mM, 0.025 mM, 0.0125 mM, and 0.006 mM) of the five most significant anti-urease imidazothiazole derivatives compounds (compound 1a, 1d, 1h, 2d, and 2f). After 48 h treatment, 100 μL of MTT solution (50 μg/mL) was added to each well, and the cells were incubated for additional 2 h at 37 °C. The solubilization of MTT crystals was accomplished by adding 100 μL of DMSO followed by 10 min of incubation. The plates were shaken for 5 min to dissolve the MTT formazan crystals. The optical density of each well was determined using a Synergy H1 microplate reader (Biotek, USA) at a wavelength of 570 nm. The IC50 of the tested compounds was calculated using GraphPad Prism 8.0.2 for windows (GraphPad Inc., La Jolla, CA, USA) from two repeated experiments.

Caco-2 cells = assay: Caco-2 A-B permeability; type: in vitro ADME
Procedure: as §3, §4, §5

[5] = E. coli ATCC 25922, agar dilution
[6] = H. pylori ATCC 43504, agar dilution

T1 sequence (P07374 whole entry, looked up): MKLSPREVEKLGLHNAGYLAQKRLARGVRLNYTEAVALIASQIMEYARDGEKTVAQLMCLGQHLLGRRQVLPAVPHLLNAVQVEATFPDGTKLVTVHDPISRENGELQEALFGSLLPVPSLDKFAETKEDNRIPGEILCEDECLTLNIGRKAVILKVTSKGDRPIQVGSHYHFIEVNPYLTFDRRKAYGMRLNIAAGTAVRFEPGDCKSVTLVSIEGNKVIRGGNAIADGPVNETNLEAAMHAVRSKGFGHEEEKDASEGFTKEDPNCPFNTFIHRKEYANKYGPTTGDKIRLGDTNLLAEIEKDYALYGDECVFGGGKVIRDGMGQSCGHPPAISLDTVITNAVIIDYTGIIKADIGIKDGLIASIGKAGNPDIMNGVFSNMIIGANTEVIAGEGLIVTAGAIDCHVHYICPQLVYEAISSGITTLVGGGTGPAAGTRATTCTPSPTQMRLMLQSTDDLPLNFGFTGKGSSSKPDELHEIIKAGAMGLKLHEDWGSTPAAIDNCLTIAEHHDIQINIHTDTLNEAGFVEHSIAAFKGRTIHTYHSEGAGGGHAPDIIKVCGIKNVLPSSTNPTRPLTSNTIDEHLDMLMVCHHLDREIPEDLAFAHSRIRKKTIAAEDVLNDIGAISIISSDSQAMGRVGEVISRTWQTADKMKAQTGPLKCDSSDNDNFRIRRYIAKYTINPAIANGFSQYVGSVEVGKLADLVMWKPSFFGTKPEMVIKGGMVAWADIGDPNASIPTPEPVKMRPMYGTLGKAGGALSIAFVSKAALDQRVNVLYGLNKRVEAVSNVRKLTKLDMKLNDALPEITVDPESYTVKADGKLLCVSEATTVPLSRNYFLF

| Structure (SMILES) | IC50 ± SEM against E. coli (Urease-) (E. coli [1]) | IC50 (H. pylori [2]; Helicobacter pylori, ATCC43504) [µM] | Papp (Caco-2 A-B permeability) [×10⁻⁶ cm/s] | recovery (Caco-2 A-B permeability) [%] | MIC (E. coli [3]; [5]) [µM] | MIC (H. pylori [4]; [6]) [µM] | antibacterial activity against H. pylori (in words) (H. pylori [4]) | IC50 (Jack bean urease) [µM] | melting point [°C] | IC50 (AGS gastric cells; Homo sapiens, AGS) [µM] | Selectivity index (SI) (AGS gastric cells) | IC50 (E. coli [1]; read-out: IC50 ± SEM against E. coli (Urease-)) [µM] | IC50 (H. pylori [2]) [µM] | MIC ± SEM against E. coli (Urease-) (E. coli [3]; [5]) [µM] | MIC value against H. pylori ± SEM (H. pylori [4]; [6]) [µM] | IC50 (AGS gastric cells) [µM] | Caco-2 permeability (in words) (Caco-2 cells) | activity against urease-negative E. coli (in words) (E. coli [3]; E. coli, up to 0.8 mM) |
| --- | --- | --- | --- | --- | --- | --- | --- | --- | --- | --- | --- | --- | --- | --- | --- | --- | --- | --- |
| CS(=O)(=O)Oc1cccc(-c2nc3sccn3c2-c2ccccc2)c1 [Compound 1a, 3-(5-Phenylimidazo[2,1-b]thiazol-6-yl)phenyl methanesulfonate] | No effect | 23 ± 9 | 18.6 ± 0.79 | 34.4 | > 800 | 19 ± 4 | strongest antibacterial activity | 4.1 ± 0.03 | 105 to 108 | 71 ± 17 | 3.09 |  |  |  |  |  |  |  |
| CC(=O)NO [Acetohydroxamic acid (AHA), Acetohydroxamic acid, reference compound] |  |  |  |  |  |  |  |  |  |  |  | 39900 ± 1780 | 7380 ± 320 | 100000 | 12500 ± 0 (≈ 938 µg/mL) | 5900 ± 300 |  |  |
| NS(=O)(=O)Oc1cccc(-c2nc3sccn3c2-c2ccccc2)c1 [Compound 1h, 3-(5-Phenylimidazo[2,1-b]thiazol-6-yl)phenyl sulfamate] | No effect | 28 ± 1 | 16.9 ± 0.87 | 32.6 | > 800 | 50 (≈ 18.6 µg/mL) | strongest antibacterial activity | 2.96 ± 0.02 | 173 to 175 | 145 ± 45 | 5.18 |  |  |  |  |  |  |  |
| CS(=O)(=O)c1cccc(-c2c(-c3cccc(OS(=O)(=O)C4CCCCC4)c3)nc3sccn23)c1 [Compound 2d, 3-(5-(3-(Methylsulfonyl)phenyl)imidazo[2,1-b]thiazol-6-yl)phenyl cyclohexane-1-sulfonate] | No effect | 15 ± 3 | 0.07 ± 0.02 | 73.5 | > 800 | 22 ± 4 (≈ 11.4 µg/mL) | strongest antibacterial activity | 4.46 ± 0.12 | 142 to 144 | 30 ± 11 | 2.0 |  |  |  |  |  | lowest permeability; also recorded: low permeability |  |
| CS(=O)(=O)c1cccc(-c2c(-c3cccc(OS(=O)(=O)c4ccc(F)cc4)c3)nc3sccn23)c1 [Compound 2f, 3-(5-(3-(Methylsulfonyl)phenyl)imidazo[2,1-b]thiazol-6-yl)phenyl 4-fluorobenzenesulfonate] | No effect | 23 ± 8 | 1.98 ± 0.23 | 71.8 | > 800 | 38 ± 13 (≈ 20.1 µg/mL) | strongest antibacterial activity | 7.19 ± 0.09 |  | 45 ± 5 | 1.95 |  |  |  |  |  | lowest permeability; also recorded: low permeability |  |
| O=S(=O)(Oc1cccc(-c2nc3sccn3c2-c2ccccc2)c1)C1CCCCC1 [Compound 1d, 3-(5-Phenylimidazo[2,1-b]thiazol-6-yl)phenyl cyclohexane-1-sulfonate] | No effect | 20 ± 3 | 0.04 ± 0.01 | 63 | > 800 | 31 ± 11 (≈ 13.6 µg/mL) | strongest antibacterial activity | 3.09 ± 0.07 | 118 to 120 | 121 ± 44 | 6.05 |  |  |  |  |  | lowest permeability; also recorded: poor Caco-2 A-B permeability; also recorded: low permeability | did not show activity |
